SMILES strings stand for the structures.

The values below come from patent US12161115B2, “Herbicidal compounds” (SYNGENTA CROP PROTECTION AG, priority 2019, dated 2024).

Assay type in all cases: in vivo
The subject of data set [1] is Alopecurus myosuroides (ALOMY). Briefly: Pre-emergence herbicidal glasshouse test. Particulars: 250 g/Ha, evaluated after 13 days. As to the method:
(§1) Seeds of a variety of test species are sown in standard soil in pots (Lolium perenne (LOLPE), Setaria faberi (SETFA), Alopecurus myosuroides (ALOMY), Echinochloa crus-galli (ECHCG), Avena fatua (AVEFA)). After cultivation for one day (pre-emergence) or after 8 days cultivation (post-emergence) under controlled conditions in a glasshouse (at 24/16° C., day/night; 14 hours light; 65% humidity), the plants are sprayed with an aqueous spray solution derived from the formulation of the technical active ingredient in acetone/water (50:50) solution containing 0.5% Tween 20 (polyoxyethelyene sorbitan monolaurate, CAS RN 9005-64-5). Compounds are applied at 250 g/h. The test plants are then grown in a glasshouse under controlled conditions in a glasshouse (at 24/16° C., day/night; 14 hours light; 65% humidity) and watered twice daily. After 13 days for pre and post-emergence, the test is evaluated for the percentage damage caused to the plant. The biological activities are shown in the following table on a five point scale (5=80-100%; 4=60-79%; 3=40-59%; 2=20-39%; 1=0-19%). NT=not tested.

In data set [2] the test system is Lolium perenne (LOLPE). Briefly: Pre-emergence herbicidal glasshouse test. As to conditions: 250 g/Ha, evaluated after 13 days. As for the experimental part:
as §1

For data set [3], the system named is Avena fatua (AVEFA). Briefly: Pre-emergence herbicidal glasshouse test. As to conditions: 250 g/Ha, evaluated after 13 days. As to the method: as §1
Data set [4] concerns Echinochloa crus-galli (ECHCG). As to the kind of experiment: Pre-emergence herbicidal glasshouse test. Particulars: 250 g/Ha, evaluated after 13 days. As for the experimental part:
as §1

Data set [5] relates to Setaria faberi (SETFA). Briefly: Pre-emergence herbicidal glasshouse test. As to conditions: 250 g/Ha, evaluated after 13 days. As to the method:
as §1

Data set [6] has as its system Alopecurus myosuroides (ALOMY). As to the kind of experiment: Post-emergence herbicidal glasshouse test. Particulars: 250 g/Ha, evaluated after 13 days. As for the experimental part: as §1
Data set [7] relates to Lolium perenne (LOLPE). As to the kind of experiment: Post-emergence herbicidal glasshouse test. As to conditions: 250 g/Ha, evaluated after 13 days. As to the method: as §1
Data set [8] has as its system Avena fatua (AVEFA). Briefly: Post-emergence herbicidal glasshouse test. As to conditions: 250 g/Ha, evaluated after 13 days. As for the experimental part: as §1
Data set [9] has as its system Echinochloa crus-galli (ECHCG). Briefly: Post-emergence herbicidal glasshouse test. As to conditions: 250 g/Ha, evaluated after 13 days. As to the method: as §1
In data set [10] the test system is Setaria faberi (SETFA). Briefly: Post-emergence herbicidal glasshouse test. As to conditions: 250 g/Ha, evaluated after 13 days. As to the method: as §1
A further data set relates to wheat crop plants. As to the kind of experiment: Crop phytotoxicity comparison, post-emergence. As to conditions: in vivo. As to the method: as §1
(§2) Using procedures outlines above, wheat and barley crop plants are treated, post-emergence with compounds A1, A3 or A8 of the present invention or comparator compound C1 (Compound A-38 from WO2014/096289) at the application rates indicated. The compounds were also applied in conjunction with the safener compound cloquintocet-mexyl (CQC) at 50 g/ha.

The next data set has as its system barley crop plants. As to the kind of experiment: Crop phytotoxicity comparison, post-emergence. Particulars: in vivo. As for the experimental part:
as §1, §2

As to `CC#Cc1cc(C)c(C2C(=O)CC3(CCN(C(=O)/C(=N\OC)C(C)(C)C)CC3)CC2=O)c(C)c1` [Compound A7], the “percentage damage caused to the plant, five point scale, ALOMY” value (shortened to “percentage damage caused … ALOMY”) in data set [1] and in data set [6] was 4 (4=60-79%) throughout. Moreover, the “percentage damage caused to the plant, five point scale, LOLPE” value (“percentage damage caused … LOLPE” below) in the data set on Lolium perenne (LOLPE) [2] and in the data set with Lolium perenne (LOLPE) [7] was 5 (5=80-100%) in each case. In addition, the “percentage damage caused to the plant, five point scale, AVEFA” value (from here on “percentage damage caused … AVEFA”) is listed as 2 (2=20-39%) with Avena fatua (AVEFA) [3] and 3 (3=40-59%) in the data set with Avena fatua (AVEFA) [8]. The “percentage damage caused to the plant, five point scale, ECHCG” value (shortened to “percentage damage caused … ECHCG”) in data set [4] and in data set [9] was 5 (5=80-100%) throughout. In addition, the “percentage damage caused to the plant, five point scale, SETFA” value (“percentage damage caused … SETFA” below) in the data set on Setaria faberi (SETFA) [5] and in the data set on Setaria faberi (SETFA) [10] was 5 (5=80-100%) in each case.
For `CC#Cc1cc(C)c(C2C(=O)CC3(CCN(C(=O)/C(C)=N/O)CC3)CC2=O)c(C)c1` [Compound A4], the “percentage damage caused … ALOMY” value in data set [1] and in [6] was 5 (5=80-100%) each time. Moreover, the “percentage damage caused … LOLPE” value in the data set on Lolium perenne (LOLPE) [2] and with Lolium perenne (LOLPE) [7] was 5 (5=80-100%) in each case. Further, the “percentage damage caused … AVEFA” value in the data set on Avena fatua (AVEFA) [3] and with Avena fatua (AVEFA) [8] was 5 (5=80-100%) throughout. Moreover, the “percentage damage caused … ECHCG” value in [4] and in data set [9] was 5 (5=80-100%) in each case. Besides, the “percentage damage caused … SETFA” value in the data set with Setaria faberi (SETFA) [5] and in the data set on Setaria faberi (SETFA) [10] was 5 (5=80-100%) in each case.
Turning to `CC#Cc1cc(C)c(C2C(=O)CC3(CCN(C(=O)C(C)=NOCC#N)CC3)CC2=O)c(C)c1` [Compound A10], the “percentage damage caused … ALOMY” value was 4 (4=60-79%) in [1] and 5 (5=80-100%) in [6]. For the same compound, the “percentage damage caused … LOLPE” value in the data set with Lolium perenne (LOLPE) [2] is recorded as 1 (1=0-19%); with Lolium perenne (LOLPE) [7], 5 (5=80-100%). The “percentage damage caused … AVEFA” value in the data set with Avena fatua (AVEFA) [3] is recorded as 1 (1=0-19%); in the data set with Avena fatua (AVEFA) [8] it was 5 (5=80-100%). Further, the “percentage damage caused … ECHCG” value is 4 (4=60-79%) in data set [4] and 5 (5=80-100%) in [9]. Besides, the “percentage damage caused … SETFA” value is listed as 4 (4=60-79%) with Setaria faberi (SETFA) [5] and 5 (5=80-100%) in the data set with Setaria faberi (SETFA) [10].
Take `CC#Cc1cc(C)c(C2C(=O)CC3(CCN(C(=O)/C(C)=N/OC4CCOCC4)CC3)CC2=O)c(C)c1` [Compound A9]: the “percentage damage caused … ALOMY” value in data set [1] and in data set [6] was 5 (5=80-100%) in each case. Besides, the “percentage damage caused … LOLPE” value with Lolium perenne (LOLPE) [2] was 3 (3=40-59%); in the data set with Lolium perenne (LOLPE) [7], 4 (4=60-79%). Further, the “percentage damage caused … AVEFA” value was 2 (2=20-39%) in the data set on Avena fatua (AVEFA) [3] and 5 (5=80-100%) with Avena fatua (AVEFA) [8]. Also, the “percentage damage caused … ECHCG” value in [4] is recorded as 3 (3=40-59%); in [9], 5 (5=80-100%). Further, the “percentage damage caused … SETFA” value with Setaria faberi (SETFA) [5] is given as 4 (4=60-79%); in the data set on Setaria faberi (SETFA) [10], 5 (5=80-100%).
For the compound `CC#Cc1cc(C)c(C2C(=O)CC3(CCN(C(=O)/C=N/OC)CC3)CC2=O)c(C)c1` [Compound A3, 9-(2,6-dimethyl-4-prop-1-ynyl-phenyl)-3-[(2E)-2-methoxyiminoacetyl]-3-azaspiro[5.5]undecane-8,10-dione], in the data set with wheat crop plants, the “damage to wheat crop compared to prior art compound C1” value is on record as “significantly less damaging”. Further, the “damage to barley crop compared to prior art compound C1” value in the data set on barley crop plants is on record as “significantly less damaging”. Also, the “percentage damage caused … ALOMY” value in [1] is recorded as 4 (4=60-79%); in data set [6], 5 (5=80-100%). Moreover, the “percentage damage caused … LOLPE” value with Lolium perenne (LOLPE) [2] and with Lolium perenne (LOLPE) [7] was 5 (5=80-100%) each time. The “percentage damage caused … AVEFA” value with Avena fatua (AVEFA) [3] and in the data set with Avena fatua (AVEFA) [8] was 5 (5=80-100%) throughout. Moreover, the “percentage damage caused … ECHCG” value in data set [4] and in data set [9] was 5 (5=80-100%) throughout. For the same compound, the “percentage damage caused … SETFA” value with Setaria faberi (SETFA) [5] and in the data set on Setaria faberi (SETFA) [10] was 5 (5=80-100%) in each case.
